From patent publication US20240116928A1 (Gilead Sciences, Inc., priority 2022, published 2024) come the findings set out here.

In test [1] the target is T1, CD73 (Homo sapiens, UniProt P21589).
T1 sequence (P21589 27-549): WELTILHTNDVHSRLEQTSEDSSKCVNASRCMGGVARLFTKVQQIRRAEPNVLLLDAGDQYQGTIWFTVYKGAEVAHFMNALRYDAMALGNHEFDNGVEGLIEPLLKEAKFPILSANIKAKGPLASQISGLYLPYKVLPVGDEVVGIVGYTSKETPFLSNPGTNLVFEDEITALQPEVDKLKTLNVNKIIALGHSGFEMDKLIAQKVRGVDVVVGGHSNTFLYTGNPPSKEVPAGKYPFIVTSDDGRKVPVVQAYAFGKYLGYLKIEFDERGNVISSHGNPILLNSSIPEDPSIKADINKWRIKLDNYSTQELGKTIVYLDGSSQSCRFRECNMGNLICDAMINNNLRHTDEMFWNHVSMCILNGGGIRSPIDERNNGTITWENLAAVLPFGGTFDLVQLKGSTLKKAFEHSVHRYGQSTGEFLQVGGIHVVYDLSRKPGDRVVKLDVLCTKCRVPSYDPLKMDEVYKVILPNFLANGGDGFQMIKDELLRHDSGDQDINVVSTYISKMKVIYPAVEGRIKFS
As to the kind of experiment: CD73 Biochemical IC50 Assay. Particulars: CD73 enzyme (R&D system) final 0.3 nM, final AMP 15 uM, 60 mins incubation, Rapid fire. The method, then: CD73 Biochemical IC50 Assay
Compound serial dilutions were pre-spotted into Thermo Nunc assay plate. 50 μL CD73 enzyme buffer (CD73 purchased from R&D system=0.6 nM, 25 mM Tris, pH 7.4, 5 mM MgCl2, 1 mM NaH2PO4) was added into the assay plate and incubated for 15 mins. […] After incubation for 60 mins, the supernatant 20 uL was transferred into 384-well NUNC plate pre-filled with 60 ul Quench buffer (80% organic and 20% water+0.1% FA) with internal standard. The plate was spun down at 4500 rpm for 20 mins, then 20 μl of supernatant was transferred to another Nunc plate prefilled with 80 μl of water. The samples were run using Rapid fire.

The target in test [2] is T1, CD73. Kind of test: MDA-MB-231 Cell Based CD73 Activity Assay (DMEM). The arrangement: endogenous in cells; host or cells: MDA-MB-231-GFP. Particulars: MDA-MB-231-GFP cells, DMEM with 10% human plasma, overnight compound treatment, 200 uM AMP, 100 mins. The method, then: Cells were plated into assay plate with compounds pre-spotted, for an overnight compound treatment. 50 uL of 400 uM AMP (final concentration will be 200 uM) was added using Bio-tek dispenser. Plates were incubated for 100 mins. 20 uL of supernatant was transferred into 384-well NUNC plate pre-filled with 60 ul Quench buffer (80% organic and 20% water+0.1% FA) with internal standard. The plates were spun down at 4500 rpm for 20 mins, then 20 ul of supernatant was transferred to another Nunc plate prefilled with 80 ul of water. The samples were analyzed using Rapid fire.

In turn, `Cc1nc(-c2c[nH]c(=O)[nH]c2=O)cc(N2C[C@H](Oc3cc4c(cn3)c(C)nn4CC(F)(F)F)C(F)(F)C2)n1` [Example 28, (S)-6-(3,3-difluoro-4-((3-methyl-1-(2,2,2-trifluoroethyl)-1H-pyrazolo[4,3-c]pyridin-6-yl)oxy)pyrrolidin-1-yl)-2-methyl-[4,5′-bipyrimidine]-2′,4′ (1′H,3′H)-dione] came in with an IC50 against CD73 [1] of 0.00716 µM. For the same compound, the response at CD73 [2] was half-maximal at 0.00638 µM (EC50).
The like results for `Cc1nc(-c2c[nH]c(=O)[nH]c2=O)cc(N2C[C@H](OC(=O)NC(C)C)C(F)(F)C2)n1` [Example 29, (S)-4,4-difluoro-1-(2-methyl-2′,4′-dioxo-1′,2′,3′,4′-tetrahydro-[4,5′-bipyrimidin]-6-yl)pyrrolidin-3-yl isopropylcarbamate] were, in that order, 0.0131 µM and above 0.05 µM.
The like results for `Cc1nc(-c2c[nH]c(=O)[nH]c2=O)cc(N2C[C@H](OC(=O)NC3(C(F)(F)F)CC3)C(F)(F)C2)n1` [Example 30, (S)-4,4-difluoro-1-(2-methyl-2′,4′-dioxo-1′,2′,3′,4′-tetrahydro-[4,5′-bipyrimidin]-6-yl)pyrrolidin-3-yl (1-(trifluoromethyl)cyclopropyl)carbamate] were, in that order, 0.013 µM and 0.0348 µM.
